According to the NIST ThermoML archive (doi:10.1016/j.jct.2008.03.011):
± gives the expanded uncertainty stated by the source.

Columns and labels:
[1] = xn = mol fraction of the nth substance listed; conditions: 101 kPa, Liquid; for speed of sound: Sing-around technique in a fixed-path interferometer
[2] = refractive index (Na D-line) (dimensionless); xn = mol fraction of the nth substance listed; conditions: 101 kPa, Liquid, Standard Abbe refractometry

CCC(C)=O [butanone] + C1CCCCC1 showed a speed of sound ([1]; 293.15 K, x2 = 0) of 1212 ± 2 m/s, a speed of sound ([1]; 293.15 K, x2 = 0.0472) of 1212 ± 2 m/s and a speed of sound ([1]; 293.15 K, x2 = 0.0979) of 1213 ± 2 m/s. It also gave a speed of sound ([1]; 293.15 K, x2 = 0.1986) of 1212 ± 2 m/s, a speed of sound ([1]; 293.15 K, x2 = 0.2973) of 1212 ± 2 m/s and a speed of sound ([1]; 293.15 K, x2 = 0.3975) of 1216 ± 2 m/s. The speed of sound ([1]; 293.15 K, x2 = 0.497) was 1221 ± 2 m/s, the speed of sound ([1]; 293.15 K, x2 = 0.6045) was 1229 ± 2 m/s and the speed of sound ([1]; 293.15 K, x2 = 0.6922) was 1236 ± 2 m/s. The speed of sound ([1]; 293.15 K, x2 = 0.7984) was 1248 ± 2 m/s, the speed of sound ([1]; 293.15 K, x2 = 0.8978) was 1261 ± 2 m/s and the speed of sound ([1]; 293.15 K, x2 = 0.9476) was 1269 ± 2 m/s. The mass density ([1]; 293.15 K, x2 = 0) was 805.6 ± 0.5 kg/m3, the mass density ([1]; 293.15 K, x2 = 0.0472) was 802.6 ± 0.5 kg/m3 and the mass density ([1]; 293.15 K, x2 = 0.0979) was 799.8 ± 0.5 kg/m3. The mass density ([1]; 293.15 K, x2 = 0.1986) was 794.7 ± 0.5 kg/m3, the mass density ([1]; 293.15 K, x2 = 0.2973) was 790.3 ± 0.5 kg/m3 and the mass density ([1]; 293.15 K, x2 = 0.3975) was 786.6 ± 0.5 kg/m3. It also gave a mass density ([1]; 293.15 K, x2 = 0.497) of 783.7 ± 0.5 kg/m3, a mass density ([1]; 293.15 K, x2 = 0.6045) of 781 ± 0.5 kg/m3 and a mass density ([1]; 293.15 K, x2 = 0.6922) of 779.5 ± 0.5 kg/m3. For the same compound, the mass density ([1]; 293.15 K, x2 = 0.7984) was 778.2 ± 0.5 kg/m3, the mass density ([1]; 293.15 K, x2 = 0.8978) was 777.8 ± 0.5 kg/m3 and the mass density ([1]; 293.15 K, x2 = 0.9476) was 778 ± 0.5 kg/m3. It also gave a speed of sound ([1]; 298.15 K, x2 = 0) of 1192 ± 2 m/s, a speed of sound ([1]; 298.15 K, x2 = 0.0472) of 1190 ± 2 m/s and a speed of sound ([1]; 298.15 K, x2 = 0.0979) of 1190 ± 2 m/s. The speed of sound ([1]; 298.15 K, x2 = 0.1986) was 1190 ± 2 m/s, the speed of sound ([1]; 298.15 K, x2 = 0.2973) was 1190 ± 2 m/s and the speed of sound ([1]; 298.15 K, x2 = 0.3975) was 1192 ± 2 m/s. It also gave a speed of sound ([1]; 298.15 K, x2 = 0.497) of 1198 ± 2 m/s, a speed of sound ([1]; 298.15 K, x2 = 0.6045) of 1204 ± 2 m/s and a speed of sound ([1]; 298.15 K, x2 = 0.6922) of 1212 ± 2 m/s. For the same compound, the speed of sound ([1]; 298.15 K, x2 = 0.7984) was 1222 ± 2 m/s, the speed of sound ([1]; 298.15 K, x2 = 0.8978) was 1236 ± 2 m/s and the speed of sound ([1]; 298.15 K, x2 = 0.9476) was 1244 ± 2 m/s. For the same compound, the mass density ([1]; 298.15 K, x2 = 0) was 799.7 ± 0.5 kg/m3, the mass density ([1]; 298.15 K, x2 = 0.0472) was 796.4 ± 0.5 kg/m3 and the mass density ([1]; 298.15 K, x2 = 0.0979) was 793.7 ± 0.5 kg/m3. It also gave a mass density ([1]; 298.15 K, x2 = 0.1986) of 788.8 ± 0.5 kg/m3, a mass density ([1]; 298.15 K, x2 = 0.2973) of 784.8 ± 0.5 kg/m3 and a mass density ([1]; 298.15 K, x2 = 0.3975) of 781.4 ± 0.5 kg/m3. The mass density ([1]; 298.15 K, x2 = 0.497) was 778.4 ± 0.5 kg/m3, the mass density ([1]; 298.15 K, x2 = 0.6045) was 776.1 ± 0.5 kg/m3 and the mass density ([1]; 298.15 K, x2 = 0.6922) was 774.6 ± 0.5 kg/m3. It also gave a mass density ([1]; 298.15 K, x2 = 0.7984) of 773.4 ± 0.5 kg/m3, a mass density ([1]; 298.15 K, x2 = 0.8978) of 773.1 ± 0.5 kg/m3 and a mass density ([1]; 298.15 K, x2 = 0.9476) of 773.2 ± 0.5 kg/m3. For the same compound, the speed of sound ([1]; 303.15 K, x2 = 0) was 1163 ± 2 m/s, the speed of sound ([1]; 303.15 K, x2 = 0.0472) was 1159 ± 2 m/s and the speed of sound ([1]; 303.15 K, x2 = 0.0979) was 1159 ± 2 m/s. The speed of sound ([1]; 303.15 K, x2 = 0.1986) was 1158 ± 2 m/s, the speed of sound ([1]; 303.15 K, x2 = 0.2973) was 1158 ± 2 m/s and the speed of sound ([1]; 303.15 K, x2 = 0.3975) was 1161 ± 2 m/s. It also gave a speed of sound ([1]; 303.15 K, x2 = 0.497) of 1166 ± 2 m/s, a speed of sound ([1]; 303.15 K, x2 = 0.6045) of 1172 ± 2 m/s and a speed of sound ([1]; 303.15 K, x2 = 0.6922) of 1179 ± 2 m/s. It also gave a speed of sound ([1]; 303.15 K, x2 = 0.7984) of 1188 ± 2 m/s, a speed of sound ([1]; 303.15 K, x2 = 0.8978) of 1200 ± 2 m/s and a speed of sound ([1]; 303.15 K, x2 = 0.9476) of 1207 ± 2 m/s. For the same compound, the mass density ([1]; 303.15 K, x2 = 0) was 794.9 ± 0.5 kg/m3, the mass density ([1]; 303.15 K, x2 = 0.0472) was 791.5 ± 0.5 kg/m3 and the mass density ([1]; 303.15 K, x2 = 0.0979) was 788.8 ± 0.5 kg/m3. It also gave a mass density ([1]; 303.15 K, x2 = 0.1986) of 784 ± 0.5 kg/m3, a mass density ([1]; 303.15 K, x2 = 0.2973) of 779.9 ± 0.5 kg/m3 and a mass density ([1]; 303.15 K, x2 = 0.3975) of 776.4 ± 0.5 kg/m3. For the same compound, the mass density ([1]; 303.15 K, x2 = 0.497) was 773.5 ± 0.5 kg/m3, the mass density ([1]; 303.15 K, x2 = 0.6045) was 771.1 ± 0.5 kg/m3 and the mass density ([1]; 303.15 K, x2 = 0.6922) was 769.6 ± 0.5 kg/m3. The mass density ([1]; 303.15 K, x2 = 0.7984) was 768.5 ± 0.5 kg/m3, the mass density ([1]; 303.15 K, x2 = 0.8978) was 768.2 ± 0.5 kg/m3 and the mass density ([1]; 303.15 K, x2 = 0.9476) was 768.5 ± 0.5 kg/m3. The refractive index ([2]; 293.15 K, x2 = 0) was 1.37879 ± 0.00033, the refractive index ([2]; 293.15 K, x2 = 0.0472) was 1.38079 ± 0.00032 and the refractive index ([2]; 293.15 K, x2 = 0.0979) was 1.3829 ± 0.00032. It also gave a refractive index ([2]; 293.15 K, x2 = 0.1986) of 1.38711 ± 0.00032, a refractive index ([2]; 293.15 K, x2 = 0.2973) of 1.39144 ± 0.00032 and a refractive index ([2]; 293.15 K, x2 = 0.3975) of 1.39592 ± 0.00032. The refractive index ([2]; 293.15 K, x2 = 0.497) was 1.40055 ± 0.00032, the refractive index ([2]; 293.15 K, x2 = 0.6045) was 1.40575 ± 0.00032 and the refractive index ([2]; 293.15 K, x2 = 0.6922) was 1.41006 ± 0.00032. It also gave a refractive index ([2]; 293.15 K, x2 = 0.7984) of 1.4153 ± 0.00031, a refractive index ([2]; 293.15 K, x2 = 0.8978) of 1.42041 ± 0.00031 and a refractive index ([2]; 293.15 K, x2 = 0.9476) of 1.42316 ± 0.00031. For the same compound, the refractive index ([2]; 298.15 K, x2 = 0) was 1.37618 ± 0.00033, the refractive index ([2]; 298.15 K, x2 = 0.0472) was 1.37811 ± 0.00032 and the refractive index ([2]; 298.15 K, x2 = 0.0979) was 1.38016 ± 0.00032. The refractive index ([2]; 298.15 K, x2 = 0.1986) was 1.38436 ± 0.00032, the refractive index ([2]; 298.15 K, x2 = 0.2973) was 1.38857 ± 0.00032 and the refractive index ([2]; 298.15 K, x2 = 0.3975) was 1.3929 ± 0.00032. It also gave a refractive index ([2]; 298.15 K, x2 = 0.497) of 1.39774 ± 0.00032, a refractive index ([2]; 298.15 K, x2 = 0.6045) of 1.4026 ± 0.00032 and a refractive index ([2]; 298.15 K, x2 = 0.6922) of 1.40723 ± 0.00032. For the same compound, the refractive index ([2]; 298.15 K, x2 = 0.7984) was 1.4125 ± 0.00031, the refractive index ([2]; 298.15 K, x2 = 0.8978) was 1.41769 ± 0.00031 and the refractive index ([2]; 298.15 K, x2 = 0.9476) was 1.42035 ± 0.00031. The refractive index ([2]; 303.15 K, x2 = 0) was 1.37355 ± 0.00033, the refractive index ([2]; 303.15 K, x2 = 0.0472) was 1.3754 ± 0.00032 and the refractive index ([2]; 303.15 K, x2 = 0.0979) was 1.37748 ± 0.00032. For the same compound, the refractive index ([2]; 303.15 K, x2 = 0.1986) was 1.38159 ± 0.00032, the refractive index ([2]; 303.15 K, x2 = 0.2973) was 1.38588 ± 0.00032 and the refractive index ([2]; 303.15 K, x2 = 0.3975) was 1.39029 ± 0.00032. It also gave a refractive index ([2]; 303.15 K, x2 = 0.497) of 1.39494 ± 0.00032, a refractive index ([2]; 303.15 K, x2 = 0.6045) of 1.40014 ± 0.00032 and a refractive index ([2]; 303.15 K, x2 = 0.6922) of 1.40443 ± 0.00032. For the same compound, the refractive index ([2]; 303.15 K, x2 = 0.7984) was 1.4097 ± 0.00031, the refractive index ([2]; 303.15 K, x2 = 0.8978) was 1.41473 ± 0.00031 and the refractive index ([2]; 303.15 K, x2 = 0.9476) was 1.41746 ± 0.00031.
